Values after ≈ are worked out from the molar mass of the structure shown. Active and inactive are the calls of the source. The rule behind the calls is not given here.
Assays:
4T1 [1] = assay: Antitumor activity against mouse 4T1 cells implanted in Balb/c mouse assessed as appearance of vacuolation at 25 to 35 mg/kg, ip administered once every 2 days for 14 days by TEM analysis; format: functional, organism-based; conditions: dose 25-35 mg/kg, time 14.0 day
[2] = Toxicity in Kunming mouse assessed as lethal dose administered intraperitoneally for 14 days; conditions: in vivo, route ip, time 14 day
4T1 [3] = assay: Antitumor activity against mouse 4T1 cells implanted in Balb/c mouse assessed as appearance of larger intercellular gaps at 80 mg/kg, IT administered once every 4 days for 14 days in presence of olive oil by TEM analysis; format: functional, organism-based; conditions: time 14.0 day
4T1 [4] = assay: Antitumor activity against mouse 4T1 cells implanted in Balb/c mouse assessed as reduction in tumor size at 25 to 35 mg/kg, ip administered once every 2 days 14 days; format: functional, organism-based; conditions: dose 25-35 mg/kg, time 14.0 day
4T1 [5] = assay: Antitumor activity against mouse 4T1 cells implanted in Balb/c mouse assessed as tumor inhibition rate at 80 mg/kg, IT administered once every 4 days in presence of olive oil relative to control; format: functional; set-up: scale not given: the % may be the effect or the level left
[6] = Cardiotoxicity in Kunming mouse assessed as change in CK level administered intraperitoneally for 14 days (reference value: 851.75 +/- 87.81 U); format: toxicity; conditions: in vivo, ip, 336 h, time 14 day
4T1 [7] = assay: Antitumor activity against mouse 4T1 cells implanted in Balb/c mouse assessed as appearance of extensive tumor cell necrosis at 25 mg/kg, ip administered once every 2 days for 14 days; format: functional, organism-based; conditions: time 14.0 day
[8] = Toxicity in Kunming mouse assessed as change in spleen lesions at 240 to 469 mg/kg, ip administered for 14 days by H and E staining based analysis; format: organism-based; conditions: in vivo, 336 h, dose 240-469 mg/kg, time 14 day
[9] = Toxicity in female Balb/c mouse implanted with mouse 4T1 cells assessed as tumor metastasis to lungs at 25 mg/kg, ip administered once every 2 days for 14 days; format: organism-based; conditions: in vivo, 336 h, time 14 day
[10] = Toxicity in female Balb/c mouse implanted with mouse 4T1 cells assessed as behavioural changes at 25 to 35 mg/kg, ip administered once every 2 days; format: organism-based; conditions: in vivo, 48 h, dose 25-35 mg/kg, time 2 day
[11] = Solubility of compound in water; format: physicochemical
4T1 [12] = assay: Antitumor activity against mouse 4T1 cells implanted in Balb/c mouse assessed as appearance of mitochondrial swelling at 200 mg/kg, TOP administration once every 2 days for 14 days; format: functional, organism-based; conditions: time 14.0 day
4T1 [13] = assay: Antitumor activity against mouse 4T1 cells implanted in Balb/c mouse assessed as appearance of mitochondrial swelling at 25 to 35 mg/kg, ip administered once every 2 days for 14 days by TEM analysis; format: functional, organism-based; conditions: dose 25-35 mg/kg, time 14.0 day
4T1 [14] = assay: Antitumor activity against mouse 4T1 cells implanted in Balb/c mouse assessed as appearance of chromatin aggregation at 80 mg/kg, IT administered once every 4 days for 14 days in presence of olive oil by TEM analysis; format: functional, organism-based; conditions: time 14.0 day
[15] = Toxicity in female Balb/c mouse implanted with mouse 4T1 cells assessed as change in spleen at 25 to 35 mg/kg, ip administered once every 2 days for 14 days; format: organism-based; conditions: in vivo, 48 h, dose 25-35 mg/kg, time 2 day
4T1 [16] = assay: Antitumor activity against mouse 4T1 cells implanted in Balb/c mouse assessed as damage in endoplasmic reticulum at 25 to 35 mg/kg, ip administered once every 2 days for 14 days by TEM analysis; format: functional, organism-based; conditions: dose 25-35 mg/kg, time 14.0 day
[17] = Hepatotoxicity in Kunming mouse assessed as change in AST level administered intraperitoneally for 14 days (reference value: 153.25 +/- 15.26 U); format: toxicity; conditions: in vivo, ip, 336 h, time 14 day
MDA-MB-231 [18] = assay: Antiproliferative activity against human MDA-MB-231 cells assessed as inhibition of cell proliferation incubated for 48 hrs by CCK-8 assay; format: functional, cell-based; conditions: MDA-MB-231, 48 h
4T1 [19] = assay: Antitumor activity against mouse 4T1 cells implanted in Balb/c mouse assessed as reduction in tumor weight at 80 mg/kg, IT administered once every 4 days in presence of olive oil; format: functional, organism-based
[20] = Hepatotoxicity in Kunming mouse assessed as change in ALT level administered intraperitoneally for 14 days (reference value: 45.75 +/- 4.65 U); format: toxicity; conditions: in vivo, ip, 336 h, time 14 day
[21] = Toxicity in female Balb/c mouse implanted with mouse 4T1 cells assessed as abnormal behaviour at 80 mg/kg, IT administered once every 4 days in presence of olive oil; format: organism-based; conditions: in vivo, other, 96 h
[22] = Cardiotoxicity in Kunming mouse assessed as change in LDH level administered intraperitoneally for 14 days (reference value: 1253 +/- 67.28 U); format: toxicity; conditions: in vivo, ip, 336 h, time 14 day
MDA-MB-231 [23] = assay: Induction of apoptosis in human MDA-MB-231 cells assessed as increase in green fluorescence at 1 uM incubated for 24 hrs in presence of doxorubicin by fluorescence microscopic analysis; format: functional, cell-based
4T1 [24] = assay: Antitumor activity against mouse 4T1 cells implanted in Balb/c mouse assessed as damage in endoplasmic reticulum at 80 mg/kg, IT administered once every 4 days for 14 days in presence of olive oil by TEM analysis; format: functional, organism-based; conditions: time 14.0 day
4T1 [25] = assay: Antitumor activity against mouse 4T1 cells implanted in Balb/c mouse assessed as tumor suppression rate at 35 mg/kg, ip administered once every 2 days for 14 days relative to control; format: functional
MDA-MB-231 [26] = assay: Induction of apoptosis in human MDA-MB-231 cells assessed as viable cells at 1 uM incubated for 24 hrs by Annexin-V/PI staining based flow cytometric analysis (reference value: 93.37%); format: functional; conditions: read-out: Activity
[27] = Solubility of compound in 0.1 M HCL; format: physicochemical
[28] = Toxicity in Kunming mouse assessed as change in liver lesions at 240 to 469 mg/kg, ip administered for 14 days by H and E staining based analysis; format: organism-based; conditions: in vivo, 336 h, dose 240-469 mg/kg, time 14 day
MDA-MB-231 [29] = assay: Induction of apoptosis in human MDA-MB-231 cells assessed as late apoptotic cells at 1 uM incubated for 24 hrs by Annexin-V/PI staining based flow cytometric analysis (reference value: 3.24%); format: functional
HepG2 = assay: Antiproliferative activity against human HepG2 cells assessed as inhibition of cell proliferation incubated for 48 hrs by CCK-8 assay; format: functional, cell-based; conditions: HepG2, 48 h
MDA-MB-231 [30] = assay: Induction of cell cycle arrest in human MDA-MB-231 cells assessed as accumulation of cells at S phase at 1 uM incubated for 24 hrs by PI staining based flow cytometric analysis (reference value: 8.71%); format: functional
[31] = Nephrotoxicity in Kunming mouse assessed as change in BUN level administered intraperitoneally for 14 days (reference value: 8.65 +/- 2.66 U); format: toxicity; conditions: in vivo, ip, 336 h, time 14 day
[32] = Toxicity in Kunming mouse assessed as change in heart lesions at 240 to 469 mg/kg, ip administered for 14 days by H and E staining based analysis; format: organism-based; conditions: in vivo, 336 h, dose 240-469 mg/kg, time 14 day
4T1 [33] = assay: Antitumor activity against mouse 4T1 cells implanted in Balb/c mouse assessed as appearance of loosely arranged tumor cells at 35 mg/kg, ip administered once every 2 days for 14 days; format: functional, organism-based; conditions: time 14.0 day

In the case of `Cc1[nH]c2ccccc2c1C1=C(F)C(=O)C(F)=C(N2CCOCC2)C1=O`, the Activity (4T1 [1]) is reported as “Active”, the LD50 at 336 h [2] is reported as 385 mg/kg and the Activity (4T1 [3]) is reported as “Active”. The Activity (4T1 [4]) was “Active”, the Activity (4T1 [5]) was 41.9% and the Activity [6] was 812 U/L. For the same compound, the Activity (4T1 [7]) was “Active”, the Activity [8] was “Non-toxic” and the Activity [9] was “Toxic”. For the same compound, the Activity [10] was “Non-toxic”, the solubility [11] was 28 µg/mL (≈ 78.1 µM) and the Activity (4T1 [12]) was “Active”. The Activity (4T1 [13]) was “Active”, the Activity (4T1 [14]) was “Active” and the Activity [15] was “Non-toxic”. For the same compound, the Activity (4T1 [16]) was “Active”, the Activity [17] was 106 U/L and the IC50 (MDA-MB-231 [18]) was 3.2 µM. For the same compound, the Activity (4T1 [19]) was “Active”, the Activity [20] was 28.8 U/L and the Activity [21] was “Non-toxic”. For the same compound, the Activity [22] was 1060 U/L, the Activity (MDA-MB-231 [23]) was “Active; Compound Showed More Effect Than Mitoxantrone Treated Group” and the Activity (4T1 [24]) was “Active”. The Activity (4T1 [25]) was 50%, the viability at 1 µM (MDA-MB-231 [26]) was 45.1% and the solubility [27] was 19 µg/mL (≈ 53 µM). The Activity [28] was “Non-toxic”, the Activity (MDA-MB-231 [29]) was 26.4% and the IC50 (HepG2) was 3.94 µM. The Activity (MDA-MB-231 [30]) was 4.21%, the Activity [31] was 6.26 U and the Activity [32] was “Non-toxic”. The Activity (4T1 [33]) was “Active”.
